Reference: the NIST ThermoML archive (doi:10.1021/je500886a)
± gives the expanded uncertainty stated by the source.

Experiment: mn = molality of the nth substance listed, in mol/kg
Details: 101 kPa, Liquid

O=C[C@H](O)[C@@H](O)[C@H](O)[C@H](O)CO [D-glucose] + O
Details | mass density [kg/m3] | viscosity [mPa·s]
288.15 K, m1 = 0.0513 | – | 1.167 ± 0.022
288.15 K, m1 = 0.05146 | 1002.66 ± 0.23 | –
288.15 K, m1 = 0.06904 | – | 1.176 ± 0.022
288.15 K, m1 = 0.07233 | 1004.08 ± 0.24 | –
288.15 K, m1 = 0.09026 | – | 1.188 ± 0.022
288.15 K, m1 = 0.09244 | 1005.44 ± 0.24 | –
288.15 K, m1 = 0.1114 | – | 1.2 ± 0.022
288.15 K, m1 = 0.1294 | – | 1.212 ± 0.022
288.15 K, m1 = 0.149 | – | 1.219 ± 0.022
298.15 K, m1 = 0.0513 | – | 0.911 ± 0.017
298.15 K, m1 = 0.05146 | 1000.54 ± 0.23 | –
298.15 K, m1 = 0.06904 | – | 0.918 ± 0.018
298.15 K, m1 = 0.07233 | 1001.94 ± 0.23 | –
298.15 K, m1 = 0.09026 | – | 0.926 ± 0.018
298.15 K, m1 = 0.09244 | 1003.27 ± 0.24 | –
298.15 K, m1 = 0.1096 | 1004.41 ± 0.24 | –
298.15 K, m1 = 0.1114 | – | 0.935 ± 0.018
298.15 K, m1 = 0.1241 | 1005.36 ± 0.24 | –
298.15 K, m1 = 0.1294 | – | 0.942 ± 0.018
298.15 K, m1 = 0.149 | – | 0.951 ± 0.018
308.15 K, m1 = 0.0513 | – | 0.735 ± 0.014
308.15 K, m1 = 0.06904 | – | 0.741 ± 0.015
308.15 K, m1 = 0.07233 | 998.9 ± 0.23 | –
308.15 K, m1 = 0.09026 | – | 0.747 ± 0.015
308.15 K, m1 = 0.09244 | 1000.22 ± 0.23 | –
308.15 K, m1 = 0.1096 | 1001.34 ± 0.23 | –
308.15 K, m1 = 0.1114 | – | 0.755 ± 0.015
308.15 K, m1 = 0.1241 | 1002.28 ± 0.23 | –
308.15 K, m1 = 0.1294 | – | 0.759 ± 0.015
308.15 K, m1 = 0.1456 | 1003.66 ± 0.24 | –
308.15 K, m1 = 0.149 | – | 0.764 ± 0.015
318.15 K, m1 = 0.0513 | – | 0.609 ± 0.012
318.15 K, m1 = 0.05146 | 993.66 ± 0.24 | –
318.15 K, m1 = 0.06904 | – | 0.613 ± 0.012
318.15 K, m1 = 0.07233 | 995.03 ± 0.24 | –
318.15 K, m1 = 0.09026 | – | 0.618 ± 0.013
318.15 K, m1 = 0.09244 | 996.33 ± 0.23 | –
318.15 K, m1 = 0.1096 | 997.44 ± 0.23 | –
318.15 K, m1 = 0.1114 | – | 0.623 ± 0.013
318.15 K, m1 = 0.1241 | 998.37 ± 0.23 | –
318.15 K, m1 = 0.1294 | – | 0.627 ± 0.013
318.15 K, m1 = 0.1456 | 999.74 ± 0.23 | –
318.15 K, m1 = 0.149 | – | 0.632 ± 0.013

OC[C@@H](O)[C@@H](O)[C@H](O)[C@H](O)CO [D-mannitol] + O
Details | mass density, 288.15 K [kg/m3] | mass density, 298.15 K [kg/m3] | mass density, 308.15 K [kg/m3] | mass density, 318.15 K [kg/m3] | viscosity, 288.15 K [mPa·s] | viscosity, 298.15 K [mPa·s] | viscosity, 308.15 K [mPa·s] | viscosity, 318.15 K [mPa·s]
m1 = 0.04909 | 1002.3 ± 0.35 | 1000.12 ± 0.35 | 997.07 ± 0.35 | 993.22 ± 0.36 | – | – | – | –
m1 = 0.05269 | – | – | – | – | 1.176 ± 0.022 | 0.918 ± 0.018 | 0.74 ± 0.015 | 0.611 ± 0.013
m1 = 0.06889 | 1003.56 ± 0.36 | 1001.34 ± 0.35 | 998.27 ± 0.35 | 994.41 ± 0.36 | – | – | – | –
m1 = 0.07011 | – | – | – | – | 1.189 ± 0.022 | 0.927 ± 0.018 | 0.747 ± 0.015 | 0.617 ± 0.013
m1 = 0.09002 | 1004.91 ± 0.36 | 1002.62 ± 0.35 | 999.54 ± 0.35 | 995.65 ± 0.35 | – | – | – | –
m1 = 0.09107 | – | – | – | – | 1.203 ± 0.023 | 0.936 ± 0.018 | 0.754 ± 0.015 | 0.621 ± 0.013
m1 = 0.1097 | – | – | – | – | 1.217 ± 0.023 | 0.945 ± 0.018 | 0.761 ± 0.015 | 0.627 ± 0.013
m1 = 0.1134 | 1006.38 ± 0.36 | 1004.04 ± 0.36 | 1000.93 ± 0.35 | 997.03 ± 0.35 | – | – | – | –
m1 = 0.1266 | 1007.19 ± 0.36 | 1004.82 ± 0.36 | 1001.71 ± 0.35 | 997.8 ± 0.35 | – | – | – | –
m1 = 0.1293 | – | – | – | – | 1.23 ± 0.023 | 0.955 ± 0.019 | 0.765 ± 0.015 | 0.633 ± 0.013
m1 = 0.1469 | 1008.45 ± 0.37 | 1006.03 ± 0.36 | 1002.9 ± 0.36 | 998.97 ± 0.35 | – | – | – | –
m1 = 0.15 | – | – | – | – | 1.246 ± 0.023 | 0.964 ± 0.019 | 0.774 ± 0.015 | 0.639 ± 0.013
